One assay has as its target GPR40 (UniProt O14842). The experiment in a line: GPR40 Calcium Flux Assay. The assay is classed as cell-based. As to conditions: transfected HEK293 cells stably expressing human or rat GPR40; species not given. The protocol:
Biological Example 3: In Vitro Assay
Compounds were tested in a calcium flux assay using transfected HEK293 cells stably expressing either human GPR40 or rat GPR40. Human GPR40 expressing cells were cultured in DMEM-High Glucose media supplemented with 10% fetal bovine serum, 1×L-Glutamine, 1× Penicillin/Streptomycin and 500 μg/mL G418. Rat GPR40 expressing cells were cultured in DMEM-High Glucose media supplemented with 10% fetal bovine serum and 1 μg/mL puromycin. Cells were plated into poly-D-lysine coated 384-well plates and cultured overnight in a 37° C. humidified tissue culture incubator under 5% CO2/90% O2 atmosphere.
On the day of the experiment, the culture media was replaced with assay buffer (HBSS, 20 mM HEPES, 0.1% BSA) and the cells incubated at 37° C. for 1 h. Calcium-sensitive fluorescent dye (Fluo 8 No-Wash Calcium Dye, ABD Bioquest) was then added and the cells incubated for another 30 min at 37° C. followed by 15 min at room temperature while protected from the light. The cell plate and a plate of diluted compounds of Formula (I) were loaded into a fluorescent plate reader that added compounds onto the cells while measuring the fluorescence intensity of each well. The plate reader recorded fluorescence intensity at 1 second intervals for 8 min and provided the data for analysis in an Excel format. EC50 values were calculated using Prism (GraphPad) software.

For assay [1], the target named is T1, Human GPR120 short form (short splice variant, NM_001195755.1) (Homo sapiens, UniProt Q5NUL3).
T1 construct: expressed in transfected cells; host or cells: HEK293
T1 sequence (Q5NUL3 1-361): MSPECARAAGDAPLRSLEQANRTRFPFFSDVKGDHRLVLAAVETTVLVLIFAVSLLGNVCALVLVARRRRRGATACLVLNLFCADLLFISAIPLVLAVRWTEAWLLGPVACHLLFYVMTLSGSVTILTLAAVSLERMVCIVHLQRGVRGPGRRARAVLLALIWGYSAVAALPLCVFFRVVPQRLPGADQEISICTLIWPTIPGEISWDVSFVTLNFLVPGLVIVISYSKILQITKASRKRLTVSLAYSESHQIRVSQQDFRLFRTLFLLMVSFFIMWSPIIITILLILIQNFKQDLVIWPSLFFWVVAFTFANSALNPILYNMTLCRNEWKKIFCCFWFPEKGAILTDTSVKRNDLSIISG
The assay is described as follows: Human GPR120 Calcium Flux Assay. It counts as cell-based. The note with it: HEK-293 cells, 4200 cells/well, read-out: Human GPR120 Calcium Flux Assay Procedure B EC50. An outline of the steps:
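HEK293 cells stably expressing human GPR120 short form were starved 1 h and loaded with Fluo-4 NW dye with probenecid. Compound-induced calcium flux was read on FLIPR for 300 s, with the response taken as max minus min RFU. EC50 came from sigmoidal variable-slope fits.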
(Calcium assays in cells follow changes in intracellular calcium, usually with a dye or a luminescent sensor.)

One may read the EC50 as the concentration needed to bring the measured effect to its halfway point.

With `Cc1c(CCC(=O)O)ccc(OCC2=C(c3ccc(Cl)cc3)COCC2)c1C` [ID No. 745, 3-[4-[[5-(4-chlorophenyl)-3,6-dihydro-2H-pyran-4-yl]methoxy]-2,3-dimethyl-phenyl]propanoic acid], the EC50 at GPR40 was greater than 10000 nM; in assay [1], 110 nM.

For the origin of these results see patent US20210024483A1, “HETEROCYLCOALKENYL DERIVATIVES USEFUL AS AGONISTS OF THE GPR120 AND / OR GPR40” (Janssen Pharmaceutica NV, priority 2018, published 2021).
